Measurements taken from patent US20250152605A1, “METHOD AND DRUG FOR TREATING NEURONAL CEROID LIPOFUSCINOSIS” (priority 2021, published 2025).

Columns and labels:
[1] = test system: CLN3^Δex7/8 human neural stem cells; assay: Transcriptome sequencing (RNA-seq) of human neural stem cells; type: cell-based; conditions: 6 μM, 6 hours
Description: In order to detect the effect of Compound G on treated cells, transcriptome sequencing was performed on neural stem cells treated with Compound G, with specific steps as follows: CLN3^Δex7/8 human neural stem cells were seeded into 2% Matrigel-coated 6-well cell plates to a cell density of 80%; fresh cell culture medium containing 6 μM Compound G or an equal volume of DMSO was added, and each treatment condition for two biological replicates; the neural stem cells were incubated in a 37° C. cell culture incubator for 6 hours; the cell culture medium was aspirated, following by washing once with dPBS, and then intracellular RNA was extracted by Qiagen RNeazy Mini Plus Kit; the extracted RNA was sent to ANNOROAD for RNA quality testing first. The purity of RNA was tested using a Nanophotometer spectrophotometer; the concentration of RNA was tested using a Qubit 3.0 Flurometer; the integrity of the RNA was tested using the Aligent 2100 RNA Nano 6000 Assay kit; 2 μg of RNA was taken from each qualified sample for library construction and quantified using Qubit 3.0 Flurometer.
After diluting the library-building samples to 1 ng/μL, the Aligent 2100 RNA Nano 6000 Assay kit and qPCR were used for quality detection; Illumina's Hiseq PE Cluster kit was used for clustering, and the Hiseq 2500 sequencing platform was used for paired-end sequencing to obtain 150 bp paired-end sequencing reads; FastQC software was used to evaluate the quality of the raw data obtained from sequencing, then TrimGalore was used to remove adapter sequences and low-quality sequences, and filtered data was obtained for subsequent analysis.
Comparation between filtered data and human reference genome hg38 was carried with HISAT2, resulting in Bam file, and the number of counts aligned to each gene was counted by FeatureCount, with gtf (GRCh38.92) file provided by Ensembl as annotation. Ensembl IDs were converted to gene names by BiomaRt R package. The genes with fold change>2 and corrected p<0.05 were screened as differential genes, through differential genes expression analysis with DESeq2 software.
In order to explore the mechanism of Compound G in human neural stem cells, transcriptome sequencing experiments were conducted on wild-type human neural stem cells, CLN3^Δex7/8 human neural stem cells and CLN3^Δex7/8 human neural stem cells after treated with Compound G for 6 hours, and differentially expressed genes were analyzed. […] CLN3^Δex7/8 human neural stem cells treated and untreated with Compound G were clustered together (FIG. 29(b, c)). […] With regard to the RNA sequencing results, the effects of Compound G on the transcription level of TFEB, autophagy-related genes and lysosomal genes were also analyzed.

SCMAS protein = SCMAS protein storage in neurons (immunofluorescence staining and western blot); type: cell-based, human; conditions: CLN3^Δex7/8 neurons
Description: Sample preparation: for adherent cultured cells, exemplified by cells cultured in a six-well cell plate, the cell medium was aspirated and the cells were washed once with dPBS. About 100 μL of RIPA lysate (50 mM Tris-HCl, pH 7.5, 150 mM NaCl, 0.25% Na-deoxycholate, 0.1% NP-40, 0.1% Triton X-100) containing protease inhibitors and phosphatase inhibitors was added to each well. The cell lysate was scraped off completely with a cell scraper and collected into 1.5 mL EP tubes. Lysis was continued for 30 minutes on ice. For animal tissue, the weight of the animal tissue was weighed, and RIPA lysate containing protease inhibitors and phosphatase inhibitors was added with five times the volume of the animal tissue. The tissue was grinded on ice with a tissue grinder until there is no obvious tissue mass, collected into 1.5 mL EP tubes, and placed on ice for further lysis for 30 min. […]

[2] = test system: CLN3^Δex7/8 human neurons; assay: Lysotracker staining of CLN3^Δex7/8 human neurons, flow cytometry; type: cell-based
Description: In analyzing the mean fluorescence intensity of neural stem cells and neuronal staining or single cell establishment of NRK cells, flow cytometry was used: the cell medium was aspirated off, after wash with dPBS once, the digestive enzyme corresponding to the cell type was added to digest into single cells; the supernatant was removed by centrifugation, and the cells were resuspended with 1 mL of fresh medium; the cell suspension with filtered through 40 μm filter membrane and the single cell filtrate was collected; the single cell filtrate was transferred to a flow tube and analyzed or sorted using BD FACS Aria III; in the analysis, the fluorescence intensity of 1×10^4 cells for each sample was analyzed to obtain the mean fluorescence intensity (MFI); for sorting, cells were received in 96 well plates with medium, one cell per well to establish a cell line.
Studies above have shown that CLN3^Δex7/8 human neurons feature lysosomal acidity dysregulation. To investigate the effect of Compound G on lysosomal acidity in CLN3^Δex7/8 neurons, Lysotracker dye was used for staining and flow cytometry was used for analyzing the fluorescence intensity of Lysotracker dye in cells.

C/C=C1\C(=O)C[C@H]2[C@@H]3CCC4=CC(=O)CC[C@]4(C)[C@H]3CC[C@]12C [Compound G, (Z)-guggulsterone]
expression levels of NQO1, LPCAT1 and HLA-E [1]: all increased
gene expression profile (PCA analysis) [1]: did not produce a significant impact
number of differential genes (fold change >2 and corrected p<0.05) [1]: 3
differential expression folds of NRF2 downstream genes other than NQO1 ([1]; RNA sequencing): less than 2
expressions of multiple NRF2 downstream genes ([1]; RNA sequencing): elevated
transcription level of TFEB and most autophagy-related genes and lysosomal genes ([1]; RNA sequencing): no significant effects
abnormal storage of SCMAS protein (SCMAS protein): significant reduction
Lysotracker fluorescence intensity in CLN3^Δex7/8 human neurons [2]: increased significantly
